According to patent US7528148B2, “Pyrazolo[3,4-B]pyridine compounds, and their use as phosphodiesterase inhibitors” (Glaxo Group Limited, priority 2002, dated 2009):

molecular target: T1, PDE4B (human recombinant) (Homo sapiens, UniProt Q07343); assay: PDE4B inhibition, radioactive SPA or IMAP fluorescence polarisation (FP) assay; type: biochemical; settings: one reading or average of ca. 2-6 readings, accurate only to about ±0.5 log unit, read-out: PDE4B pIC50 (±about 0.5) (converted)
T1 construct: made in house; host or cells: Saccharomyces cerevisiae strain GL62 (PDE-deficient)
From the text: Human recombinant PDE4B, in particular the 2B splice variant thereof (HSPDE4B2B), is disclosed in WO 94/20079 and also M. M. McLaughlin et al., “A low Km, rolipram-sensitive, cAMP-specific phosphodiesterase from human brain: cloning and expression of cDNA, biochemical characterisation of recombinant protein, and tissue distribution of mRNA”, J. Biol. Chem., 1993, 268, 6470-6476. Human recombinant PDE4B was expressed in the PDE-deficient yeast Saccharomyces cerevisiae strain GL62. 100,000×g supernatant fractions of yeast cell lysates were used for PDE4B assays and inhibitor studies.
The ability of compounds to inhibit catalytic activity at PDE4B or 4D (human recombinant), PDE3 (from bovine aorta) or PDE5 (human recombinant) or PDE6 (from bovine retina) was determined by Scintillation Proximity Assay (SPA) in 96-well format. Test compounds (preferably as a solution in DMSO, e.g. about 2 microlitre (ul) volume of DMSO solution) were preincubated at ambient temperature (room temperature, e.g. 19-23° C.) in Wallac Isoplates (code 1450-514) with PDE enzyme in 50 mM Tris-HCl buffer pH 7.5, 8.3 mM MgCl2, 1.7 mM EGTA, 0.05% (w/v) bovine serum albumin for 10-30 minutes (usually 30 minutes). The enzyme concentration was adjusted so that no more than 20% hydrolysis of the substrate defined below occurred in control wells without compound, during the incubation. For PDE3, PDE4B and PDE4D assays, [5′,8-^3H]Adenosine 3′,5′-cyclic phosphate (Amersham Pharmacia Biotech, code TRK.559; or Amersham Biosciences UK Ltd, Pollards Wood, Chalfont St Giles, Buckinghamshire HP8 4SP, UK) was added to give 0.05 uCi per well and ˜10 nM final concentration. For the PDE5 and PDE6 assay [8-^3H]Guanosine 3′,5′-cyclic phosphate (Amersham Pharmacia Biotech, code TRK.392) was added to give 0.05 uCi per well and ˜36 nM final concentration. Plates, preferably containing approx. 100 ul volume of assay mixture, were mixed on an orbital shaker for 5 minutes and incubated at ambient temperature for 1 hour. Phosphodiesterase SPA beads (Amersham Pharmacia Biotech, code RPNQ 0150) were added (˜1 mg per well) to terminate the assay. Plates were sealed and shaken and allowed to stand at ambient temperature for 35 minutes to 1 hour (preferably 35 minutes) to allow the beads to settle. Bound radioactive product was measured using a WALLAC TRILUX 1450 Microbeta scintillation counter. For inhibition curves, 10 concentrations ([…]) of each compound were assayed. Curves were analysed using ActivityBase and XLfit (ID Businesss Solutions Limited, 2 Ocean Court, Surrey Research Park, Guildford, Surrey GU2 7QB, United Kindgom) Results were expressed as pIC50 values.
The ability of compounds to inhibit catalytic activity at PDE4B (human recombinant) or PDE4D (human recombinant) was determined by IMAP Fluorescence Polarisation (FP) assay (IAP Explorer kit, available from Molecular Devices Corporation, Sunnydale, Calif., USA; Molecular Devices code: R8062) in 384-well format. The IMAP FP assay is able to measure PDE activity in an homogenous, non-radioactive assay format. The FP assay uses the ability of immobilised trivalent metal cations, coated onto nanoparticles (tiny beads), to bind the phosphate group of Fl-AMP that is produced on the hydrolysis of fluorescein-labelled (Fl) cyclic adenosine mono-phosphate (Fl-cAMP) to the non-cyclic Fl-AMP form. […] Binding of Fl-AMP product to the beads (coated with the immobilised trivalent cations) slows the rotation of the bound Fl-AMP and leads to an increase in the fluorescence polarisation ratio of parallel to perpendicular light. Inhibition of the PDE reduces/inhibits this signal increase. […]

T1 sequence (Q07343 1-564 isoform Q07343-2): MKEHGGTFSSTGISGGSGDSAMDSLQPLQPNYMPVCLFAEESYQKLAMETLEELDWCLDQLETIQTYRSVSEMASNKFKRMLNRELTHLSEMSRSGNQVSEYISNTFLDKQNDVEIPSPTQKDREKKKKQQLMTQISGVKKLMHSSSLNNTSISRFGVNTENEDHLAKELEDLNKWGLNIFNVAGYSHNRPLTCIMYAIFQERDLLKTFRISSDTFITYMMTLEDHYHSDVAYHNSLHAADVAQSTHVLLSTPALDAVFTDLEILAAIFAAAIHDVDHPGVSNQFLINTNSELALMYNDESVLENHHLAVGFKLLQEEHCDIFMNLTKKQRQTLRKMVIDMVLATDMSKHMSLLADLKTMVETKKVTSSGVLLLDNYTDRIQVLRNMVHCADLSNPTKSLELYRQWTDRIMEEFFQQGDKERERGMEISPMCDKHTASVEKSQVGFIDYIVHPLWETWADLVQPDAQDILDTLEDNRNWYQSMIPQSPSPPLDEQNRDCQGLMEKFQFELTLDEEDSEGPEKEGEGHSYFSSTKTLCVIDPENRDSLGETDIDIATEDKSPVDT

| Structure (SMILES) | IC50 |
| --- | --- |
| CCn1ncc2c(NC3CCOCC3)c(-c3nnc(C)o3)cnc21 [Example 14, 1-Ethyl-5-(5-methyl-1,3,4-oxadiazol-2-yl)-N-(tetrahydro-2H-pyran-4-yl)-1H-pyrazolo[3,4-b]pyridin-4-amine] | 0.0251 µM |
| CCn1ncc2c(NC3CCOCC3)c(-c3nnc(C(C)(C)C)o3)cnc21 [Example 17, 5-(S-Tert-butyl-1,3,4-oxadiazol-2-yl)-1-ethyl-N-(tetrahydro-2H-pyran-4-yl)-1H-pyrazolo[3,4-b]pyridin-4-amine] | 0.000794 to 0.0316 µM |
| CCn1ncc2c(NC3CCOCC3)c(-c3nnc(CS(C)(=O)=O)o3)cnc21 [Example 23, 1-Ethyl-5-{5-[(methylsulfonyl)methyl]-1,3,4-oxadiazol-2-yl}-N-(tetrahydro-2H-pyran-4-yl)-1H-pyrazolo[3,4-b]pyridin-4-amine] | 0.00794 µM |
| CCn1ncc2c(NC3CCOCC3)c(-c3nnc(CN4CCN(C)CC4)o3)cnc21 [Example 35, 1-Ethyl-5-{5-[(4-methylpiperazin-1-yl)methyl]-1,3,4-oxadiazol-2-yl}-N-(tetrahydro-2H-pyran-4-yl)-1H-pyrazolo[3,4-b]pyridin-4-amine] | 0.0316 µM |
| CCn1ncc2c(NC3CCOCC3)c(-c3nnc(C4CCOCC4)o3)cnc21 [Example 38, 1-Ethyl-N-(tetrahydro-2H-pyran-4-yl)-5-[5-(tetrahydro-2H-pyran-4-yl)-1,3,4-oxadiazol-2-yl]-1H-pyrazolo[3,4-b]pyridin-4-amine] | 0.000794 to 0.0316 µM |
